Experiments:
[1] = test system: non-CFTR Cl- channels; conditions: cited from earlier work
[2] = molecular target: T1, ENaC (Homo sapiens, UniProt P37088+P51168+P51170); conditions: cited from earlier work
T1 sequence (P37088 1-669): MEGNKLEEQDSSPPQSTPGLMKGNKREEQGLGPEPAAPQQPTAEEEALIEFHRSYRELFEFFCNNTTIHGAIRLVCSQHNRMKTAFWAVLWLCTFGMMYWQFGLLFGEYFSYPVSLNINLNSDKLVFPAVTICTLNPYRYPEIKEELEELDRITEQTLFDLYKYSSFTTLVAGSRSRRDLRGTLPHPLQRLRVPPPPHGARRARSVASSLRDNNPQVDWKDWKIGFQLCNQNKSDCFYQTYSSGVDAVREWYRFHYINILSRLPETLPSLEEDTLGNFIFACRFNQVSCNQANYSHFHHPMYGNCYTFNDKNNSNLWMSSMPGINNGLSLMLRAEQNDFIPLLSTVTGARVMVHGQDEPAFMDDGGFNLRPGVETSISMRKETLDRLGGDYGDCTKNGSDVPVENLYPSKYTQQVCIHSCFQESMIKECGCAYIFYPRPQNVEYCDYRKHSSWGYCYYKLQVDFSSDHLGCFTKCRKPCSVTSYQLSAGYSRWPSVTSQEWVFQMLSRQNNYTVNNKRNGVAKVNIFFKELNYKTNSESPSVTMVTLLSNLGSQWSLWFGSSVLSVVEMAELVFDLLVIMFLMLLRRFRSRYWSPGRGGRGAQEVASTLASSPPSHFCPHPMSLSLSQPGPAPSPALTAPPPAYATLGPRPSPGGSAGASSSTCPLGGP
T1 sequence (P51168 1-640): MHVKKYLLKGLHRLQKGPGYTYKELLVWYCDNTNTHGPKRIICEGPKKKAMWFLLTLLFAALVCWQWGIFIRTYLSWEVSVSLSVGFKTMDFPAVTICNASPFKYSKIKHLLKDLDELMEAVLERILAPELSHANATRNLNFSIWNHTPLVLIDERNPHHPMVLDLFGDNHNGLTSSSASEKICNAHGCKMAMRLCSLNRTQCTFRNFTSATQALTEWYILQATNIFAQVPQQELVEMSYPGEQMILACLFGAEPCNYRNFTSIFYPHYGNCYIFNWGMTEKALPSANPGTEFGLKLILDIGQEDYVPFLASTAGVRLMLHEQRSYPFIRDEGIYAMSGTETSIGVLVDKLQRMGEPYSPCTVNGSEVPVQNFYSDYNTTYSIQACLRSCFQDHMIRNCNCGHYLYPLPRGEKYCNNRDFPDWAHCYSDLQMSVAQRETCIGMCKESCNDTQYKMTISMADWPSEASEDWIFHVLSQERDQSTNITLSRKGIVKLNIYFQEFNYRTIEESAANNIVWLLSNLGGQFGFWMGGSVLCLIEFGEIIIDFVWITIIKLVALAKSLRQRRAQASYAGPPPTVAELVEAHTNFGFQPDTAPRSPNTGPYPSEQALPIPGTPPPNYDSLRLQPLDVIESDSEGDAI
T1 sequence (P51170 1-649): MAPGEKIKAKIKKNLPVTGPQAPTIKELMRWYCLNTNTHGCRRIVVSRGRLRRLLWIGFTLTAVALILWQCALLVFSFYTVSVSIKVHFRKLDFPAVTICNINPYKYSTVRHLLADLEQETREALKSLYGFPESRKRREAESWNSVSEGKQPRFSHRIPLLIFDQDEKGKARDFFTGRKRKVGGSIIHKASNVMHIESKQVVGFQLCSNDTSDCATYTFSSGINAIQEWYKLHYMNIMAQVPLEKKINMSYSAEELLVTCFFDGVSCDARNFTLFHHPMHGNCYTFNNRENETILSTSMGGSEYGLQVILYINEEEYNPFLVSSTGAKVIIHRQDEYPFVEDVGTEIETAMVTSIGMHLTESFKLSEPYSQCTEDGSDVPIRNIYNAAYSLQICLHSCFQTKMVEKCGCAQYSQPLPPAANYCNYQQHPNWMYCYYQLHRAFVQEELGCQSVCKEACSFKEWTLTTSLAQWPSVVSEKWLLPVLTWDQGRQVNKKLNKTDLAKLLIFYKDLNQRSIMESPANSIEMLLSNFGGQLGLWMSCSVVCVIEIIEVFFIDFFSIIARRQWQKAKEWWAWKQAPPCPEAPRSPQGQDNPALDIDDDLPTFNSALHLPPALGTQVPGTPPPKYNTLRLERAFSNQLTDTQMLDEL

[3] = test system: cftr deficient mice; test: Survival of mice after in utero ATP or cftr treatment; format: in vivo, mouse
Protocol: (§1) Female heterozygous UNC knockout X C57bl/6 mouse 5th generation backcross mice were mated with either heterozygous and previously rescued homozygous knockout mice. At 15-16 days gestation animals were anesthetized as in Example (II)(C)(2) and the fetuses surgically exposed for injection. Virus (10^9 particles/ml of amniotic fluid) was injected into the amniotic fluid. Normal delivery of the animals was allowed to take place.
as §1, with “20 ul” for “Virus (10^9 particles/ml”, “a 20 mM ATP in sterile physiological saline” for “amniotic fluid)”

[4] = test system: UTP receptors; test: UTP receptors in intestines (Rhodamine green-UTP staining); format: in vivo, mouse; conditions: knockout mice, ATP rescue, 65 day old mice
Protocol: (§2) All tissues were sectioned and washed in phosphate buffered saline. Stock solutions (1 mM) of stains obtained from Molecular Probes were used. Two microliters/ml of either CaGreen-AM. (Molecular Probes) or Rhodamine green-UTP (Molecular Probes) was added to the tissue, then incubated for 1-2 hrs All samples were examined on a Noran Odyssey CLSM with a Nikon Diaphot inverted microscope. The software used for the imaging was Noran's Intervision running on a SGI Indy workstation.
Multiple purinergic receptors and multiple signal transduction pathways are activated in different membrane domains of tracheal epithelia (Hwang, Schwiebert et al. 1996) (Devidas and Guggino 1997). Functional characterization of the P2 purinoceptor superfamily support a diverse functional role for ATP and related nucleotides in the regulation of tissue function (Williams 1996). To examine the possible role of these purinergic receptors, changes in UTP receptors in treated and normal intestines were examined using UTP labeled with fluorescent rhodamine green to stain sections of intestines.
Changes in UTP receptors in ATP-treated intestines were examined using UTP labeled with fluorescent rhodamine green to stain sections of intestines.

[5] = test system: intracellular calcium stores; test: Intracellular calcium stores in intestines (Calcium Green, confocal microscopy); format: in vivo, mouse; conditions: cftr−/− mice, in utero ATP-treatment, examined at 65 days old
Protocol: as §2
Calcium plays an integral role in secretion. […] Calcium Green™, a flourescent stain for intracellular calcium, was applied to cross-sections of both control and in utero cftr-treated cftr−/− and cftr+/− mice. All samples were examined by confocal microscopy.
Intracellular calcium stores were evaluated after in utero ATP rescue, as previously described.

[6] = Table 8, living greater than 60 days

**Q.** For `O=c1ccn([C@@H]2O[C@H](COP(=O)(O)OP(=O)(O)OP(=O)(O)O)[C@@H](O)[C@H]2O)c(=O)[nH]1` [UTP, uridine triphosphate], which “Cl- (and liquid) secretion” value ([1]; aerosolized, CF airway epithelia) is on record?
**A.** induces Cl- (and liquid) secretion

**Q.** What about the mucociliary clearance ([1]; aerosolized, pilot studies in normal subjects) of the same compound?
**A.** effective stimulator of mucociliary clearance

**Q.** What about the tolerability ([1]; short-term aerosolized, normal subjects and patients with CF) of the same compound?
**A.** well tolerated

**Q.** Which ENaC conduction [2] does the source give for `Nc1nc(N)c2nc(-c3ccccc3)c(N)nc2n1` [triamterene] here?
**A.** block conduction

**Q.** What does the source list for `Nc1ncnc2c1ncn2[C@@H]1O[C@H](COP(=O)(O)OP(=O)(O)OP(=O)(O)O)[C@@H](O)[C@H]1O` [ATP, adenosine triphosphate]?
**A.** survival of cftr deficient mice ([3]; 20 ul of 20 mM ATP into amniotic fluid at 15-16 days gestation): improved the survival; +/− Survivors, number [3, 6]: 9; −/− Survivors, number [3, 6]: 3; +/+ Survivors, number ([3]; Table 8, living greater than 60 days, treated at 15-16 days gestation): 4; +/+ Survivors (%) ([3]; Table 8, share of survivors): 25%; +/− Survivors (%) ([3]; Table 8, share of survivors): 56%; −/− Survivors (%) ([3]; Table 8, share of survivors): 19%; toxicity inferred from genotype distribution of survivors ([3]; regardless of genotype): non-toxic; UTP receptors in intestines [4]: restored the UTP receptors; intracellular Ca2+ stores in intestines [5]: restored intracellular Ca2+ in cells of the crypt

**Q.** Which ENaC conduction [2] does the source give for `N=C(N)NC(=O)c1nc(Cl)c(N)nc1N` [Amiloride] here?
**A.** block conduction

Source: patent publication US6399585B1, “In Utero treatment of CFTR-related deficiencies” (priority 1996, dated 2002)
